Assay results published in patent publication US9884063B2, “Amido-substituted azole compounds” (Bayer Pharma Aktiengesellschaft, priority 2014, dated 2018).

Legend:
[1] = test system: wildtype Wnt signaling cascade; assay: HEK293 TOP Assay (Super TopFlash luciferase reporter, Wnt-3a stimulated); format: cell-based; details: Homo sapiens, HEK293, 16 h
Method: In order to discover and characterize small molecules which inhibit the wildtype Wnt pathway, a cellular reporter assay was employed. The corresponding assay cell was generated by transfection of the mammalian cell line HEK293 (ATCC, #CRL-1573) with the Super TopFlash vector (Morin, Science 275, 1997, 1787-1790; Molenaar et al., Cell 86 (3), 1996, 391-399). The HEK293 cell line is cultivated at 37° C. and 5% CO2 in DMEM (Life Technologies, #41965-039), supplemented with 2 mM glutamine, 20 mM HEPES, 1.4 mM pyruvate, 0.15% Na-bicarbonate and 10% foetal bovine serum (GIBCO, #10270). Stable transfectants were generated by selection with 300 μg/ml Hygromycin.
(§1) In preparation of the assay, the two cell lines were plated 24 hrs before beginning the test at 10000 cells per well in a 384 micro titre plate (MTP) in 30 μl growth medium. […] The recombinant human Wnt-3a was thereby applied between 2500 and 5 ng/ml in two-fold dilution steps.
(§2) Selective inhibitory activity for small molecules on the wildtype Wnt pathway was determined after parallel incubation of both (TOP and FOP) HEK293 reporter cell lines with a compound dilution series from 50 μM to 15 nM in steps of 3.16-fold dilutions in CAFTY buffer (130 mM sodium chloride, 5 mM potassium chloride, 20 mM HEPES, 1 mM magnesium chloride, 5 mM sodium bicarbonate, pH 7.4) containing 2 mM Ca^2+ and 0.01% BSA.
(§3) The compounds were thereby serially prediluted in 100% DMSO and thereafter 50 fold into the CAFTY compound dilution buffer (described above).

[2] = test system: HEK293 FOP control reporter cell line; assay: HEK293 FOP Assay (FOP control vector luciferase reporter); format: cell-based; details: Homo sapiens
Method: In a parallel approach, HEK293 cells were cotransfected with the FOP control vector and pcDNA3. The FOP vector is identical to the TOP construct, but it contains instead of functional TCF elements a randomized, non-functional sequence. For this transfection a stable transfected cell line was generated as well, based on selection with Geneticin (1 mg/ml).
as §1, §2, §3

[3] = HEK293 TOP reporter cell line, Wnt-3a at EC50, 16 hours incubation, compound dilution series 50 μM to 15 nM
[4] = HEK293 TOP reporter cells, Wnt3a at EC50, 16 hours, luciferase
[5] = HEK293 FOP control reporter cells, 16 hours, luciferase, dilution series from 50 μM
[6] = HEK293 FOP control reporter cell line, 16 hours incubation, compound dilution series 50 μM to 15 nM

Structure (SMILES) | IC50 [1, 3] [µM] | IC50 [1, 4] [µM] | IC50 [2, 5] [µM] | IC50 [2, 6] [µM]
O=C(Nc1ccc(NC(=O)c2[nH]cnc2C(=O)N2CC3(COC3)C2)cc1)c1ccc(F)cc1 [Example 34, N-{4-[(4-fluorobenzoyl)amino]phenyl}-5-(2-oxa-6-azaspiro[3.3]hept-6-ylcarbonyl)-1H-imidazole-4-carboxamide] | 12 | 12 | ≥ 50 | –
CNC(=O)c1nc[nH]c1C(=O)Nc1ccc(NC(=O)c2c(F)cccc2F)cc1 [Example 38, N^5-{4-[(2,6-difluorobenzoyl)amino]phenyl}-N^4-methyl-1H-imidazole-4,5-dicarboxamide] | 2.3 | 2.3 | 14 | 14
CNC(=O)c1nc[nH]c1C(=O)Nc1ccc(NC(=O)c2ccc(OC)c(OC)c2OC)cc1 [Example 40, N^4-methyl-N^5-{4-[(2,3,4-trimethoxybenzoyl)amino]phenyl}-1H-imidazole-4,5-dicarboxamide] | 12 | 12 | ≥ 50 | –
CNC(=O)c1nc[nH]c1C(=O)Nc1ccc(NC(=O)c2ccccc2C(F)(F)F)cc1 [Example 58, N^4-methyl-N^5-(4-{[2-(trifluoromethyl)benzoyl]amino}phenyl)-1H-imidazole-4,5-dicarboxamide] | 3.35 | – | – | 29
CNC(=O)c1nc[nH]c1C(=O)Nc1ccc(NC(=O)c2ccc(F)cc2)c(F)c1 [Example 76, N^5-{3-fluoro-4-[(4-fluorobenzoyl)amino]phenyl}-N^4-methyl-1H-imidazole-4,5-dicarboxamide] | 12 | – | – | 7.4
COC(=O)c1nc[nH]c1C(=O)Nc1ccc(NC(=O)c2ccccc2Cl)c(F)c1 [Example 79, methyl-5-({4-[(2-chlorobenzoyl)amino]-3-fluorophenyl}carbamoyl)-1H-imidazole-4-carboxylate] | 0.51 | – | – | 8.2
COC(=O)c1nc[nH]c1C(=O)Nc1ccc(NC(=O)c2ccc(F)cc2Cl)c(C)c1 [Example 83, methyl 5-({4-[(2-chloro-4-fluorobenzoyl)amino]-3-methylphenyl}carbamoyl)-1H-imidazole-4-carboxylate] | 0.39 | – | – | 29
CNC(=O)c1nc[nH]c1C(=O)Nc1ccc(NC(=O)c2ccccc2Cl)c(C)c1 [Example 87, N^5-{4-[(2-chlorobenzoyl)amino]-3-methylphenyl}-N^4-methyl-1H-imidazole-4,5-dicarboxamide] | 1.25 | – | – | 28
COC(=O)c1nc[nH]c1C(=O)Nc1ccc(NC(=O)c2ccc(F)cc2)c(C)c1 [Example 90, methyl-5-({4-[(4-fluorobenzoyl)amino]-3-methylphenyl}carbamoyl)-1H-imidazole-4-carboxylate] | 4.9 | – | – | 13
Cc1cc(NC(=O)c2[nH]cnc2C(=O)NCCN(C)C)ccc1NC(=O)c1ccc(F)cc1 [Example 92, N^4-[2-(dimethylamino)ethyl]-N^5-{4-[(4-fluorobenzoyl)amino]-3-methylphenyl}-1H-imidazole-4,5-dicarboxamide] | 6.95 | – | – | 13
COc1cc(NC(=O)c2[nH]cnc2C(=O)NCCN2CCCCC2)ccc1NC(=O)c1ccc(F)cc1 [Example 105, N^5-{4-[(4-fluorobenzoyl)amino]-3-methoxyphenyl}-N^4-[2-(piperidin-1-yl)ethyl]-1H-imidazole-4,5-dicarboxamide] | 1.65 | – | – | 29
CC(C)c1nc(C(=O)Nc2ccc(NC(=O)c3ccc(F)cc3Cl)cc2)c(C(=O)NCCN(C)C)[nH]1 [Example 107, N^4-{4-[(2-chloro-4-fluorobenzoyl)amino]phenyl}-N^5-[2-(dimethylamino)ethyl]-2-isopropyl-1H-imidazole-4,5-dicarboxamide] | 7.25 | – | – | 39
CC(C)(C)NC(=O)c1[nH]cnc1C(=O)Nc1ccc(NC(=O)c2ccc(F)cc2)cc1 [Example 129, N^5-tert-butyl-N^4-{4-[(4-fluorobenzoyl)amino]phenyl}-1H-imidazole-4,5-dicarboxamide] | 6.75 | – | – | 15
CNC(=O)c1nc[nH]c1C(=O)Nc1ccc(NC(=O)c2cc(F)cc(F)c2F)cc1 [Example 347, N^4-methyl-N^5-{4-[(2,3,5-trifluorobenzoyl)amino]phenyl}-1H-imidazole-4,5-dicarboxamide] | 34.5 | – | – | –
CNC(=O)c1nc[nH]c1C(=O)Nc1ccc(NC(=O)c2ccc(OC)c(OC)c2Cl)cc1 [Example 348, N^5-{4-[(2-chloro-3,4-dimethoxybenzoyl)amino]phenyl}-N^4-methyl-1H-imidazole-4,5-dicarboxamide] | 7.05 | – | – | –
CNC(=O)c1nc[nH]c1C(=O)Nc1ccc(NC(=O)c2ccc(C#N)c(F)c2)cc1 [Example 350, N^5-{4-[(4-cyano-3-fluorobenzoyl)amino]phenyl}-N^4-methyl-1H-imidazole-4,5-dicarboxamide] | 6.5 | – | – | –
CNC(=O)c1nc[nH]c1C(=O)Nc1ccc(NC(=O)c2ccnc(Cl)c2)cc1 [Example 351, N^5-(4-{[(2-chloropyridin-4-yl)carbonyl]amino}phenyl)-N^4-methyl-1H-imidazole-4,5-dicarboxamide] | 12.5 | – | – | –
CNC(=O)c1nc[nH]c1C(=O)Nc1ccc(NC(=O)c2ccno2)cc1 [Example 354, N^4-methyl-N^5-{4-[(1,2-oxazol-5-ylcarbonyl)amino]phenyl}-1H-imidazole-4,5-dicarboxamide] | 50 | – | – | –
CNC(=O)c1nc[nH]c1C(=O)Nc1ccc(NC(=O)c2ccc(OC)c(C)c2)cc1 [Example 355, N^5-{4-[(4-methoxy-3-methylbenzoyl)amino]phenyl}-N^4-methyl-1H-imidazole-4,5-dicarboxamide] | 25 | – | – | –
CNC(=O)c1nc[nH]c1C(=O)Nc1ccc(NC(=O)c2ccc(C)cn2)cc1 [Example 357, N^4-methyl-N^5-(4-{[(5-methylpyridin-2-yl)carbonyl]amino}phenyl)-1H-imidazole-4,5-dicarboxamide] | 11.2 | – | – | –
CNC(=O)c1nc[nH]c1C(=O)Nc1ccc(NC(=O)c2cccc(C(F)(F)F)c2Cl)cc1 [Example 358, N^5-(4-{[2-chloro-3-(trifluoromethyl)benzoyl]amino}phenyl)-N^4-methyl-1H-imidazole-4,5-dicarboxamide] | 4.1 | – | – | –
CNC(=O)c1nc[nH]c1C(=O)Nc1ccc(NC(=O)c2cc(F)cc(Cl)c2)cc1 [Example 360, N^5-{4-[(3-chloro-5-fluorobenzoyl)amino]phenyl}-N^4-methyl-1H-imidazole-4,5-dicarboxamide] | 15.2 | – | – | –
CNC(=O)c1nc[nH]c1C(=O)Nc1ccc(NC(=O)c2cc(F)c(F)c(Cl)c2)cc1 [Example 362, N^5-{4-[(3-chloro-4,5-difluorobenzoyl)amino]phenyl}-N^4-methyl-1H-imidazole-4,5-dicarboxamide] | 50 | – | – | –
CNC(=O)c1nc[nH]c1C(=O)Nc1ccc(NC(=O)c2cccc(OC)c2F)cc1 [Example 365, N^5-{4-[(2-fluoro-3-methoxybenzoyl)amino]phenyl}-N^4-methyl-1H-imidazole-4,5-dicarboxamide] | 50 | – | – | –
CNC(=O)c1nc[nH]c1C(=O)Nc1ccc(NC(=O)c2cc(F)cc(C#N)c2)cc1 [Example 371, N^5-{4-[(3-cyano-5-fluorobenzoyl)amino]phenyl}-N^4-methyl-1H-imidazole-4,5-dicarboxamide] | 50 | – | – | –
CNC(=O)c1nc[nH]c1C(=O)Nc1ccc(NC(=O)c2ccc(F)c(C)c2)cc1 [Example 373, N^5-{4-[(4-fluoro-3-methylbenzoyl)amino]phenyl}-N^4-methyl-1H-imidazole-4,5-dicarboxamide] | 4.2 | – | – | –
CC(C)OCCCNC(=O)c1nc[nH]c1C(=O)Nc1ccc(NC(=O)c2ccc(F)cc2Cl)cc1 [Example 383, N^5-{4-[(2-chloro-4-fluorobenzoyl)amino]phenyl}-N^4-[3-(propan-2-yloxy)propyl]-1H-imidazole-4,5-dicarboxamide] | 50 | – | – | –
O=C(Nc1ccc(NC(=O)c2[nH]cnc2C(=O)NCCN2CCCC2=O)cc1)c1ccc(F)cc1Cl [Example 398, N^5-{4-[(2-chloro-4-fluorobenzoyl)amino]phenyl}-N^4-[2-(2-oxopyrrolidin-1-yl)ethyl]-1H-imidazole-4,5-dicarboxamide] | 0.71 | – | – | –
O=C(Nc1ccc(NC(=O)c2[nH]cnc2C(=O)NCCN2CCNC2=O)cc1)c1ccc(F)cc1Cl [Example 399, N^5-{4-[(2-chloro-4-fluorobenzoyl)amino]phenyl}-N^4-[2-(2-oxoimidazolidin-1-yl)ethyl]-1H-imidazole-4,5-dicarboxamide] | 1.2 | – | – | –
